Row | Compound | melting point [°C]
1 | CCCCCCCCCCCCNC(=O)CCNc1cccc(O)c1 | < 40
2 | O=c1c(Cc2cccnc2)cn2c3ccccc3c(=O)c3cccc1c32 | 266 to 268
3 | CC(=O)N1CCC(=O)NCc2cc([N+](=O)[O-])ccc21 | 253 to 256
4 | COC(=O)c1ccc(Cl)cc1NC(=O)CSc1ccc(N)cc1 | 145 to 147
5 | CN(C)CCCOc1ccc(N(C(=O)c2ccc([N+](=O)[O-])cc2)c2ccccc2)cc1 | 89.5 to 92.5
6 | CC1(Cn2nc(-c3ccc(OC(F)(F)F)cc3)oc2=O)Cn2cc([N+](=O)[O-])nc2O1 (centres undefined) | 146 to 148
7 | COC(=O)c1ccn2ncnc2c1 | 125 to 126
8 | FC(F)(F)c1ccc2onc(Nc3ccncc3)c2c1 | > 280
9 | Nc1ccc(S(=O)(=O)c2cccc3cnccc23)cc1 | 207 to 209
10 | CCC(=O)OCC(=O)C1(OC(=S)CC)CCC2C3CC(C)C4=CC(=O)C=CC4(C)C3C(O)CC21C (centres undefined) | 117 to 119
11 | C#CC1(OCc2ccc(Cl)cc2F)CCN(C(C)=O)CC1 | 70 to 74
12 | CN(C)C1(c2ccccc2)CCC(O)(c2cc3ccccc3n2S(=O)(=O)c2ccccc2)CC1 (centres undefined) | 173 to 176
13 | CCn1ncc2c3onc(-c4ccc(Cl)cc4)c3cnc21 | 195 to 197
14 | CCN(CC)C(=O)Oc1nc(C)c2cc(OC)c(OC)cc2c1NC(N)=O | 215 to 216
15 | COc1ccc(C(=O)C2=C(C)C(=O)C3C=CC=CC3C2=O)cc1 (centres undefined) | 150 to 151
16 | CC(=O)c1ccc(-c2ccc(C#N)o2)cc1 | 122 to 125
17 | N#CC(=C1C=CC(=NOC(=O)C(Cl)(Cl)Cl)C=C1)c1ccccc1 | 147 to 148
18 | COCc1nc2c(C(F)(F)F)cccc2c(O)c1C(=O)Nc1nccs1 | 260
19 | Fc1ccc(F)c2c(NCCc3ccc(Oc4ccnc(C(F)(F)F)c4)cc3)ncnc12 | 95 to 96
20 | CC1(C)[C@H](C(=O)O)[C@@H]1C=C1CCSC1=O | 162
21 | CC(=C1SC(=O)NC1=O)c1ccc(OCCCOc2c(-c3ccc(F)cc3)n(C)c3ccccc3c2=O)c(Cl)c1 | 232 to 234
22 | CC1(COc2cc(/C=C/C(=O)O)n(Cc3ccc(C(F)(F)F)cc3Cl)n2)COC1 | 148 to 149
23 | COc1c(C)cc(C)cc1CNC(=O)CCl | 124

Row | Compound | melting point [°C]
24 | CCOc1cc2cc(CO)c(CO)c(-c3ccnc(Cl)c3)c2cc1OCC | 148 to 150
25 | CNC(=C[N+](=O)[O-])NCCCCc1ccccn1 | 90 to 91
26 | O=c1[nH]c(=O)n(C2CC(F)C(CO)O2)cc1Cl (centres undefined) | 183 to 184
27 | Cc1nnc2n1-c1sc(Cl)cc1C(c1c(F)cccc1F)=NC2 | 185 to 187
28 | COc1cccc2c1C(=O)C(c1c(Cl)cccc1Cl)C2=O (centres undefined) | 163 to 165
29 | CC(C)(C)c1ccc(-c2nnc(N)nc2N)cc1 | 275 to 276
30 | CCc1ccc2oc(=O)c([N+](=O)[O-])c(O)c2c1 | 114 to 115
31 | N#CCCn1c(=N)sc2cc(OC(F)(F)F)ccc21 | 180
32 | CCOC(=O)NNc1ccc(N(C)CCO)nn1 | 131 to 133
33 | C=CC(=O)NC(C(=O)OCC)C(=O)OCC | 105 to 106
34 | CC(=O)c1sc(Oc2ccc3c(c2)OCO3)c2c1CCc1cnn(C)c1-2 | 102 to 103
35 | CCc1ccc(Nc2nc3cc(NC(=O)c4ccc(Cl)c(Cl)c4)ccc3o2)cc1 | > 250
36 | CC(=N)NC(=O)Nc1ccc(C)cc1 | 210 to 212
37 | N#Cc1ccc(N(N)Cc2ccc(Br)cc2)cc1 | 90
38 | Cc1cc(C)c2c(c1C)OC(C)(C)C2=O | 99 to 101
39 | COc1ccc(C(CCC(=O)c2ccccc2)C(=O)c2ccc(OCc3ccccc3)cc2)cc1 (centres undefined) | 76 to 78
40 | OCc1cc(Cl)c(O)cc1F | 125 to 127
41 | O=C(O)COc1ccc2cc(-c3oc4ccccc4c3-c3ccccc3)ccc2c1-c1ccccc1 | 202 to 203
42 | O=[N+]([O-])c1cccc(S(=O)(=O)NCCc2ccncc2)c1 | 138
43 | CCNC(=O)n1nc(Oc2c([N+](=O)[O-])cc([N+](=O)[O-])cc2C(F)(F)F)cc1C | 169 to 171
44 | CCCCCCCCSCC(=O)[C@H](Cc1ccccc1)NC(=O)[C@H](CC(C)C)NC(=O)OCc1ccccc1 | 69
45 | CCCc1c(OCCCCCCc2cccc(OC)c2OC)ccc(C(=O)O)c1O | 115 to 118
46 | CCCCCCCCCCCCCCCCc1nc(N(C)C)nc(OC)c1O | 78 to 79

The next lines start with the values.

Row | melting point [°C] | Compound
47 | 152 to 153 | Cc1ccccc1NC(=NC#N)NC(NC(=O)Cc1ccc2c(c1)OCO2)C(C)(C)C (centres undefined)
48 | 208 to 210 | O=C(O)c1scc(Cl)c1C(=O)Nc1ccccc1
49 | 210 to 212 | CNC(=O)CNc1cccc2c1C(=O)N(C1CCC(=O)NC1=O)C2=O (centres undefined)
50 | 96.2 to 96.8 | Cc1ccc(Nc2ccc3c4c(cccc24)CC3)cc1
51 | 96 | CC1CCCN(C(=O)COc2cc(-c3ccccc3)nc3ccccc23)C1 (centres undefined)
52 | 216 to 218 | COc1cc2c(cc1F)CCN(Nc1ccncc1)C2
53 | 87 to 88 | COC(=O)[C@H]1CCc2c(OC)cccc2[C@@H]1O
54 | 45 to 46 | Cc1cc(SCc2sc(-c3ccc(F)cc3)nc2C)ccc1OCC(=O)O
55 | 162 to 166 | Cc1cccc2nc3sc(Cl)cn3c(=O)c12
56 | 84 to 85 | CCCCC(CC)COC(=O)C(C#N)=Cc1ccc(-c2nc3ccccc3o2)cc1 (centres undefined)
57 | 141 to 144 | CC1=NN=C(C=Cc2ccc(F)cc2)c2cc3c(cc2C1)OCO3
58 | 220 to 223 | O=S1(=O)NC(C2CCCCC2)=Nc2cccc(CO)c21
59 | 189 to 191 | COc1cc2cc(C(=O)N3CC(CCl)c4c3cc(N3C(=O)c5ccccc5C3=O)c3ncccc43)[nH]c2c(OC)c1OC (centres undefined)
60 | 160 to 161 | O=C(O)[C@@H]1CCCN1C(=O)C(Sc1nc2cc(Cl)ccc2s1)c1ccccc1 (some centres undefined)
61 | 136 to 141 | COC(=O)C1CNC(CCc2ccccc2)=N1 (racemic)
62 | 254 to 256 | CCOP(=O)(O)Cc1nc2nc[nH]c2c2nc(-c3ccc(C(C)(C)C)cc3)nn12
63 | 219 to 220 | O=C(OC(Cn1ccnc1)c1ccc2ccccc2c1)c1ccccc1 (centres undefined)
64 | 233 to 235 | Cc1ccc(S(=O)(=O)OC[C@H]2COc3cc(C)c4c(c3O2)CC(=O)N4)cc1
65 | 250 to 251 | CN(C)S(=O)(=O)c1cccc(-c2nc(N)nc(N)n2)c1
66 | 127 to 129 | Cc1cc(C)nc(NC2CCC(CCN3CCN(c4ccccc4)CC3)CC2)n1 (centres undefined)
67 | 73 to 75 | COc1ccc(C(c2ccc(OC)cc2)(c2ccc(OC)cc2)N2CCCCC2)cc1
68 | 88 to 89 | CCCOc1ccc(S(=O)(=O)N2CCN(CCOC(=O)C(C)C)CC2)cc1-c1nc2c(CCC)cn(CC)c2c(=O)[nH]1
69 | 120 to 130 | O=C(O)[C@H](Cc1c[nH]c2ccccc12)NS(=O)(=O)c1ccc2c(c1)Sc1ccccc1O2
70 | 141 to 143 | NC(=O)C(CCC(=O)OCc1ccccc1)N1Cc2c(OCc3ccc(CN4CCOCC4)cc3)cccc2C1=O (centres undefined)
71 | 161 | CNC(=O)[C@@H]1C[C@@H](OCC2CC2)CN1S(=O)(=O)c1ccc(Cl)c(CBr)c1Cl
72 | 196 to 197 | COc1cc(C(=O)c2cnc3ccccc3c2)ccc1O
73 | 182 to 184 | CCC(=O)N1CCC(NC(=O)Nc2ccc(Cl)c(C(F)(F)F)c2)CC1

Row | melting point [°C] | Compound
74 | 233 | CCOC(=O)C1=C(C)N(Cc2ccccc2[N+](=O)[O-])C2=C(C(=O)OC2)C1c1ccccc1C(F)(F)F (centres undefined)
75 | 286 | N#Cc1c(N2CCN(C(=O)c3cccs3)CC2)c2cccnc2n(Cc2ccccc2F)c1=O
76 | 140 | CS(=O)(=O)Nc1ccc([N+](=O)[O-])cc1SC1CCCCC1
77 | 193 | O=c1c(O)c(-c2ccccc2-c2ccc(CNc3nc(C(F)(F)F)nc4c3CCCC4)cc2)c1=O
78 | 281 | Nc1cccc(C(=O)Nn2cnnn2)c1
79 | 242 to 244 | O=c1c2ccc(Cl)cc2n(Cc2ccccc2)c(=O)n1S(=O)(=O)c1ccc(Cl)cc1
80 | 133 to 139 | O=C(O)c1nc2ccccc2nc1Cl
81 | 205 to 207 | COc1ccccc1-c1ccc2cnc(Nc3ccc(=O)[nH]c3)nn12
82 | 182 to 184 | COC(=O)C1=C(NC(=O)Nc2ccccc2)CSC1
83 | 221 to 226 | Cc1nc(-c2c(Cl)cccc2Cl)n[nH]1
84 | 174 to 176 | COCCc1nc2c(N)nc3ccccc3c2n1CCCNC(=O)OC(C)(C)C
85 | 209 to 210 | CC(=O)N1c2ccccc2N(Cc2ccccc2)C(=O)[C@H]2CCC[C@H]21 (relative stereo)
86 | 206 to 208 | COC(=O)c1ccc(Cn2nnc3ccc(NC(=O)CC4CCCC4)cc32)c(OC)c1
87 | 161 to 162 | CC(=O)NCc1ccc2c(c1)N(C1CCN(CCc3cccc(F)c3)CC1)CC2
88 | 157 to 158 | COc1ccc2c(c1)C(=O)c1c-2c(N2CCNCC2)nc2ccc(F)cc12
89 | 149 to 151 | Cc1cccc(C(=O)Nc2c[nH]nc2C(=O)NCCC#N)c1
90 | 168 to 172 | COc1ccc(S(=O)(=O)C2(C(=O)NO)CCN(CCOc3ccccc3)CC2)cc1
91 | 127 to 128 | CCCN(CCC)c1nc2cc3c(cc2s1)CC(N)C3 (centres undefined)
92 | 140 | O=c1c(-c2ccccc2)ccc2n1CCc1ccccc1-2
93 | 154 to 155 | CCCCOC(=O)c1c(CN2CCCCC2)nc2cc(OC)c(OC)cc2c1-c1ccc(OC)c(OC)c1
94 | 116 to 117 | Cc1cc(NC(=O)c2ccc(C(=O)N3CCN(c4ncccc4NC(C)C)CC3)nc2)n[nH]1
95 | 173 to 174 | CSC1=C([N+](=O)[O-])CN(Cc2ccccc2)CN1
96 | 164 | CCCCCCCCCCCCCCCCCc1cc(=O)[nH]c(NC(=N)Nc2ccccc2)n1
97 | 236 to 238 | O=C(O)COc1ccc2cc(-c3cnc(Cc4ccccc4)o3)ccc2c1
98 | 232 to 236 | CC(C)C(NC(=O)Cc1ccc(-c2ccccc2)cc1)C(=O)Nc1n[nH]c(=S)s1 (centres undefined)
99 | 267 to 268 | COc1cc(-c2cnc3[nH]cc(C(=O)C45CC6CC(CC(C6)C4)C5)c3n2)cc(OC)c1OC
